From publication PMC11061419, “Identification of novel small molecule inhibitors of twin arginine translocation (Tat) pathway and their effect on the control of Campylobacter jejuni in chickens” (Frontiers in Microbiology, 2024)
Values after ≈ are worked out from the molar mass of the structure shown. Values joined by “and” are separate entries in the source; they are usually repeats but may differ in a detail not shown here. Equal values may be shown once.

Tests used:
C. coli ATCC33559 = assay: Copper sulfate sensitivity dose–response assay in vitro (MIC/MBC); assay type: cell-based; conditions: Campylobacter coli; for MIC: ATCC33559, read-out: MIC, C. coli (Table S4); for MBC: ATCC33559, 0.5 mM CuSO4, read-out: MBC, C. coli (Table S5)
Method: (§1) Campylobacter jejuni 81–176 was the primary model strain used for the selection of the potential Tat-dependent inhibitors by high-throughput screening. C. jejuni 81–176 is resistant to 0.5 and 1 mM CuSO4 (Supplementary Figure S1). C. jejuni 81–176 tatC knockout mutant (C. jejuni ΔtatC) was used to confirm the Tat-dependent inhibitory effect of the selected SM. C. jejuni ΔtatC is susceptible to 0.5 mM and higher of CuSO4 ([Rajashekara et al., 2009]). The specificity of the Tat-dependent inhibitors was also tested on 11 additional Campylobacter strains (C. coli ATCC33559 and 10 other C. jejuni strains isolated from chickens) and 7 commensal/beneficial bacteria (Supplementary Table S1). The […] (Au-13, Au-20, Au-38, Au-39, Au-47, Au-50, Au-24, Au-32, Au-44, and Au-45) were selected based on their single nucleotide polymorphism (SNP)-type and percent of prevalence in chickens ([Merchant-Patel et al., 2008]; [Kumar et al., 2016]). Additional details about the bacterial strains are shown in Supplementary Table S1.
(§2) In total, 19 SMs were two-fold serially diluted to obtain a final SM concentration ranging from 6.25 to 0.012 μg/mL. C. jejuni 81–176 was then treated with a determined concentration of SM, as described in the copper sensitivity assay. […] The lowest bactericidal SM concentration was considered the MBC (no increase in OD600 over time and no viable cells were recovered on agar plate after challenge) (N = 3 replicates per SM). […] However, these SMs were two-fold serially diluted to obtain a final SM concentration ranging from 5 μg to 0.0625 μg for testing (N = two independent experiments with four technical replicate for each SM).

C. jejuni Au-13 = assay: as above; assay type: cell-based; conditions: Campylobacter jejuni; for MIC: AU13, read-out: MIC, Au-13 (Table S4); for MBC: AU13, 0.5 mM CuSO4, read-out: MBC, Au-13 (Table S5)
Method: as §1, §2

C. jejuni Au-20 = assay: as above; assay type: cell-based; conditions: Campylobacter jejuni; for MIC: AU20, read-out: MIC, Au-20 (Table S4); for MBC: AU20, 0.5 mM CuSO4, read-out: MBC, Au-20 (Table S5)
Method: as §1, §2

C. jejuni Au-24 = assay: as above; assay type: cell-based; conditions: Campylobacter jejuni; for MIC: AU24, read-out: MIC, Au-24 (Table S4); for MBC: AU24, 0.5 mM CuSO4, read-out: MBC, Au-24 (Table S5)
Method: as §1, §2

C. jejuni Au-32 = assay: as above; assay type: cell-based; conditions: Campylobacter jejuni; for MIC: AU32, read-out: MIC, Au-32 (Table S4); for MBC: AU32, 0.5 mM CuSO4, read-out: MBC, Au-32 (Table S5)
Method: as §1, §2

C. jejuni Au-38 = assay: as above; assay type: cell-based; conditions: Campylobacter jejuni; for MIC: AU38, read-out: MIC, Au-38 (Table S4); for MBC: AU38, 0.5 mM CuSO4, read-out: MBC, Au-38 (Table S5)
Method: as §1, §2

C. jejuni Au-39 = assay: as above; assay type: cell-based; conditions: Campylobacter jejuni; for MIC: AU39, read-out: MIC, Au-39 (Table S4); for MBC: AU39, 0.5 mM CuSO4, read-out: MBC, Au-39 (Table S5)
Method: as §1, §2

C. jejuni Au-44 = assay: as above; assay type: cell-based; conditions: Campylobacter jejuni; for MIC: AU44, read-out: MIC, Au-44 (Table S4); for MBC: AU44, 0.5 mM CuSO4, read-out: MBC, Au-44 (Table S5)
Method: as §1, §2

C. jejuni Au-45 = assay: as above; assay type: cell-based; conditions: Campylobacter jejuni; for MIC: AU45, read-out: MIC, Au-45 (Table S4); for MBC: AU45, 0.5 mM CuSO4, read-out: MBC, Au-45 (Table S5)
Method: as §1, §2

C. jejuni Au-47 = assay: as above; assay type: cell-based; conditions: Campylobacter jejuni; for MIC: AU47, read-out: MIC, Au-47 (Table S4); for MBC: AU47, 0.5 mM CuSO4, read-out: MBC, Au-47 (Table S5)
Method: as §1, §2

C. jejuni Au-50 = assay: as above; assay type: cell-based; conditions: Campylobacter jejuni; for MIC: AU50, read-out: MIC, Au-50 (Table S4); for MBC: AU50, 0.5 mM CuSO4, read-out: MBC, Au-50 (Table S5)
Method: as §1, §2

[1] = test system: Campylobacter spp. (12 strains); assay: Activity spectrum against Campylobacter strains at 6.25 μg/mL with 0.5 mM CuSO4; assay type: cell-based, Campylobacter jejuni, Campylobacter coli; conditions: 6.25 μg/mL SM
[2] = test system: Commensal/beneficial gut bacteria (n = 7); assay: Activity spectrum against commensal/beneficial gut bacteria at 6.25 μg/mL; assay type: cell-based; conditions: 6.25 μg/mL SM; for Commensal/beneficial gut bacteria inhibited at 6.25 μg/mL (species): Ef Enterococcus faecalis, Lb Levilactobacillus brevis, LGG Lacticaseibacillus rhamnosus GG
Method: A similar experiment was performed with seven commensal/beneficial gut bacteria to determine species specificity of these SMs. In brief, an overnight suspension was normalized at 0.05 OD600 using the appropriate medium and challenged with 6.25 μg/mL of SM. Details about the strains and their growing conditions are shown in Supplementary Table S1. Medium alone and 1% DMSO were used as controls (N = 3 replicates per SM).

[3] = test system: intracellular C. jejuni 81–176 in Caco-2 cells; assay: Copper sulfate sensitivity dose–response assay in infected Caco-2 colon epithelial cells; assay type: cell-based, Campylobacter jejuni; conditions: 0.5 mM CuSO4; for SM concentration that completely cleared intracellular C. jejuni 81–176 in Caco-2 cells (MBC in Caco2 cells): 24 h treatment; for C. jejuni 81–176 MBC in Caco2 cells: infected Caco-2 cells, 24 h
Method: The intracellular reduction in C. jejuni in the presence of a given SM (T1-T8) and 0.5 mM CuSO4 were evaluated using Caco-2 cells, as previously described ([Kumar et al., 2016]; [Deblais et al., 2019]). In brief, cells were infected for 2 h using a multiplicity of infection (MOI) of 100. Infected cells were treated with SM at a final concentration ranging between 5 and 0.315 μg/mL and incubated at 37°C for 24 h in a humidified 5% CO2 incubator. Following incubation, cells were washed once with 1X PBS, lysed with 0.1% Triton-100X, serially 10-fold diluted in 1X PBS, and plated on MH agar plate. Plates were incubated in microaerophilic conditions at 42°C for 24 h, to determine the intracellular survival. Cells not infected and not treated and cells infected and treated with 1% DMSO were used as controls (N = two independent experiments with four technical replicate for each SM).

Row | Structure (SMILES) | MIC (C. coli ATCC33559) | MBC (C. coli ATCC33559) | MIC (C. jejuni Au-13) | MBC (C. jejuni Au-13) | MIC (C. jejuni Au-20) | MBC (C. jejuni Au-20) | MIC (C. jejuni Au-24) | MBC (C. jejuni Au-24) | MIC (C. jejuni Au-32) | MBC (C. jejuni Au-32) | MIC (C. jejuni Au-38) | MBC (C. jejuni Au-38) | MIC (C. jejuni Au-39) | MBC (C. jejuni Au-39) | MIC (C. jejuni Au-44) | MBC (C. jejuni Au-44) | MIC (C. jejuni Au-45) | MBC (C. jejuni Au-45) | MIC (C. jejuni Au-47) | MBC (C. jejuni Au-47) | further results
1 | CCN(CC)/C(C)=N/C(=O)Nc1ccccc1 [T8] | 0.25 µg/mL (≈ 1.07 µM) | 0.25 µg/mL (≈ 1.07 µM) | 0.06 µg/mL (≈ 0.257 µM) | 0.06 µg/mL (≈ 0.257 µM) | 0.25 µg/mL (≈ 1.07 µM) | 0.25 µg/mL (≈ 1.07 µM) | 0.06 µg/mL (≈ 0.257 µM) | 0.06 µg/mL (≈ 0.257 µM) | 0.25 µg/mL (≈ 1.07 µM) | 0.25 µg/mL (≈ 1.07 µM) | 0.06 µg/mL (≈ 0.257 µM) | 0.06 µg/mL (≈ 0.257 µM) | 0.25 µg/mL (≈ 1.07 µM) | 0.25 µg/mL (≈ 1.07 µM) | 0.06 µg/mL (≈ 0.257 µM) | 0.12 µg/mL (≈ 0.514 µM) | 0.25 µg/mL (≈ 1.07 µM) | 0.25 µg/mL (≈ 1.07 µM) | 0.06 µg/mL (≈ 0.257 µM) | 0.06 µg/mL (≈ 0.257 µM) | MIC (C. jejuni Au-50): 0.25 µg/mL (≈ 1.07 µM); MBC (C. jejuni Au-50): 0.5 µg/mL (≈ 2.14 µM); Growth inhibition at 6.25 μg/mL, Campylobacter spp. (strains inhibited/tested) [1]: 12/12; Growth inhibition at 6.25 μg/mL, Commensal/beneficial gut bacteria (strains inhibited/tested) [2]: 2/7; Commensal/beneficial gut bacteria inhibited at 6.25 μg/mL (species) [2]: Lb and Ef; SM concentration that completely cleared intracellular C. jejuni 81–176 in Caco-2 cells (MBC in Caco2 cells) [3]: < 5 µg/mL and 5 µg/mL; C. jejuni 81–176 MBC in Caco2 cells [3]: 5 µg/mL
2 | CCCNC(=S)Nc1cc(OC)cc(OC)c1 [T1] | 0.31 µg/mL (≈ 1.22 µM) | 0.62 µg/mL (≈ 2.44 µM) | 1.25 µg/mL (≈ 4.91 µM) | 2.5 µg/mL (≈ 9.83 µM) | 0.31 µg/mL (≈ 1.22 µM) | 0.62 µg/mL (≈ 2.44 µM) | 0.16 µg/mL (≈ 0.629 µM) | 0.32 µg/mL (≈ 1.26 µM) | 0.62 µg/mL (≈ 2.44 µM) | 1.24 µg/mL (≈ 4.88 µM) | 0.31 µg/mL (≈ 1.22 µM) | 0.62 µg/mL (≈ 2.44 µM) | 0.31 µg/mL (≈ 1.22 µM) | 0.62 µg/mL (≈ 2.44 µM) | 0.31 µg/mL (≈ 1.22 µM) | 0.62 µg/mL (≈ 2.44 µM) | 0.31 µg/mL (≈ 1.22 µM) | 0.62 µg/mL (≈ 2.44 µM) | 0.16 µg/mL (≈ 0.629 µM) | 0.32 µg/mL (≈ 1.26 µM) | MIC (C. jejuni Au-50): 0.31 µg/mL (≈ 1.22 µM); MBC (C. jejuni Au-50): 0.62 µg/mL (≈ 2.44 µM); Growth inhibition at 6.25 μg/mL, Campylobacter spp. (strains inhibited/tested) [1]: 12/12; Growth inhibition at 6.25 μg/mL, Commensal/beneficial gut bacteria (strains inhibited/tested) [2]: 0/7; C. jejuni 81–176 MBC in Caco2 cells [3]: 0.63 µg/mL
3 | CSc1ccccc1-c1nnc(NC(=O)Cc2ccccc2)o1 [T7] | 0.16 µg/mL (≈ 0.492 µM) | 0.32 µg/mL (≈ 0.983 µM) | 0.31 µg/mL (≈ 0.953 µM) | 0.62 µg/mL (≈ 1.91 µM) | 0.16 µg/mL (≈ 0.492 µM) | 0.32 µg/mL (≈ 0.983 µM) | 0.08 µg/mL (≈ 0.246 µM) | 0.16 µg/mL (≈ 0.492 µM) | 0.08 µg/mL (≈ 0.246 µM) | 0.16 µg/mL (≈ 0.492 µM) | 0.16 µg/mL (≈ 0.492 µM) | 0.32 µg/mL (≈ 0.983 µM) | 0.31 µg/mL (≈ 0.953 µM) | 0.62 µg/mL (≈ 1.91 µM) | 0.31 µg/mL (≈ 0.953 µM) | 1.24 µg/mL (≈ 3.81 µM) | 0.16 µg/mL (≈ 0.492 µM) | 0.32 µg/mL (≈ 0.983 µM) | 0.31 µg/mL (≈ 0.953 µM) | 0.62 µg/mL (≈ 1.91 µM) | MIC (C. jejuni Au-50): 0.08 µg/mL (≈ 0.246 µM); MBC (C. jejuni Au-50): 0.32 µg/mL (≈ 0.983 µM); Growth inhibition at 6.25 μg/mL, Campylobacter spp. (strains inhibited/tested) [1]: 12/12; Growth inhibition at 6.25 μg/mL, Commensal/beneficial gut bacteria (strains inhibited/tested) [2]: 1/7; Commensal/beneficial gut bacteria inhibited at 6.25 μg/mL (species) [2]: LGG; SM concentration that completely cleared intracellular C. jejuni 81–176 in Caco-2 cells (MBC in Caco2 cells) [3]: < 5 µg/mL; C. jejuni 81–176 MBC in Caco2 cells [3]: 2.5 µg/mL
4 | CC(C)(C)NC(=S)NNc1c(Cl)cncc1Cl [T2] | 0.62 µg/mL (≈ 2.11 µM) | 1.24 µg/mL (≈ 4.23 µM) | 0.31 µg/mL (≈ 1.06 µM) | 0.62 µg/mL (≈ 2.11 µM) | 0.62 µg/mL (≈ 2.11 µM) | 1.24 µg/mL (≈ 4.23 µM) | 0.31 µg/mL (≈ 1.06 µM) | 0.62 µg/mL (≈ 2.11 µM) | 0.62 µg/mL (≈ 2.11 µM) | 1.24 µg/mL (≈ 4.23 µM) | 0.62 µg/mL (≈ 2.11 µM) | 1.24 µg/mL (≈ 4.23 µM) | 0.31 µg/mL (≈ 1.06 µM) | 0.62 µg/mL (≈ 2.11 µM) | 0.31 µg/mL (≈ 1.06 µM) | 0.62 µg/mL (≈ 2.11 µM) | 0.62 µg/mL (≈ 2.11 µM) | 1.24 µg/mL (≈ 4.23 µM) | 0.31 µg/mL (≈ 1.06 µM) | 0.62 µg/mL (≈ 2.11 µM) | MIC (C. jejuni Au-50): 0.31 µg/mL (≈ 1.06 µM); MBC (C. jejuni Au-50): 0.62 µg/mL (≈ 2.11 µM); Growth inhibition at 6.25 μg/mL, Campylobacter spp. (strains inhibited/tested) [1]: 12/12; Growth inhibition at 6.25 μg/mL, Commensal/beneficial gut bacteria (strains inhibited/tested) [2]: 2/7; Commensal/beneficial gut bacteria inhibited at 6.25 μg/mL (species) [2]: Lb and Ef; SM concentration that completely cleared intracellular C. jejuni 81–176 in Caco-2 cells (MBC in Caco2 cells) [3]: < 5 µg/mL; C. jejuni 81–176 MBC in Caco2 cells [3]: 1.25 µg/mL
